Experimental data: ChEMBL document CHEMBL1201862, “PubChem BioAssay data set” (2004)
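In this assay, cells in 96-well plates receive the compound at five concentrations for 48 hours. Endpoints are linearly interpolated between the surrounding concentrations. Abbreviation: GI50, concentration required for 50% inhibition of growth.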 Calls of active or inactive are those of the source. Cut-off read from the data, not from the text of the source: active = GI50 up to about 1.1 µM and inactive = higher.

How the values were obtained:
Test in all cases: NCI tumour cell line growth inhibition, 48 h
KM-20L2 = tested on: KM-20L2
SNB-78 = tested on: SNB-78
M19-MEL = tested on: M19-MEL
DLD-1 = tested on: DLD-1
XF498 = tested on: XF498
HOP-18 = tested on: HOP-18
LXFL 529 = tested on: LXFL 529
RXF 631 = tested on: RXF 631
DMS-114 = tested on: DMS-114

| Compound | GI50 (KM-20L2) | GI50 (SNB-78) | GI50 (M19-MEL) | GI50 (DLD-1) | GI50 (XF498) | GI50 (HOP-18) | GI50 (LXFL 529) | GI50 (RXF 631) | GI50 (DMS-114) |
| --- | --- | --- | --- | --- | --- | --- | --- | --- | --- |
| COc1ccc(CC2C(=O)NC(C)C(=O)N(C)C3Cc4ccc(cc4)Oc4cc(ccc4O)CC(C(=O)NC(C)C(=O)NC(C)C(=O)N2C)N(C)C3=O)cc1 (stereo unspecified) | 0.0175 µM (active) | 0.0175 µM (active) | 0.0175 µM (active) | 0.0469 µM (active) | 0.0175 µM (active) |  |  |  |  |
| CN1NC(c2ccccc2)=C(C#N)C(=O)CC1c1ccc(F)cc1 (stereo unspecified) |  | > 100 µM (inactive) |  | > 100 µM (inactive) | > 100 µM (inactive) | > 100 µM (inactive) | > 100 µM (inactive) | > 100 µM (inactive) | > 100 µM (inactive) |
| NC1CCCCC1.O=C(O)C1(P(=O)(O)O)CC1 | > 100 µM (inactive) | > 100 µM (inactive) | > 100 µM (inactive) | > 100 µM (inactive) | > 100 µM (inactive) | > 100 µM (inactive) | > 100 µM (inactive) |  | > 100 µM (inactive) |
| CC(=O)OC1COC(n2c(=S)n(-c3ccc(C)cc3)c(=O)c3ccccc32)C(OC(C)=O)C1OC(C)=O (stereo unspecified) | > 100 µM (inactive) | > 100 µM (inactive) | > 100 µM (inactive) | > 100 µM (inactive) | > 100 µM (inactive) | > 100 µM (inactive) | 58.3 µM (inactive) | 68.9 µM (inactive) | > 100 µM (inactive) |
| O=S(=O)(N/N=C/c1cccc(/C=N/NS(=O)(=O)c2ccccc2)c1)c1ccccc1 | > 100 µM (inactive) | > 100 µM (inactive) | > 100 µM (inactive) | 81.5 µM (inactive) |  | 91 µM (inactive) | 39 µM (inactive) | 73.8 µM (inactive) | 47.4 µM (inactive) |
| Cc1[nH]c2ccccc2c1-c1n[nH]c(=O)c2ccccc12 | 25.2 µM (inactive) | 46.8 µM (inactive) | 29 µM (inactive) | 15.9 µM (inactive) | 27.1 µM (inactive) |  | 21.6 µM (inactive) | 13 µM (inactive) | 14.8 µM (inactive) |
| Cc1[nH]c2ccccc2c1C1Cc2ccccc2N1C(=O)/C(Cl)=C/c1ccccc1 (stereo unspecified) | > 100 µM (inactive) | 23.3 µM (inactive) | > 100 µM (inactive) | 74.3 µM (inactive) | 12.4 µM (inactive) | 66.2 µM (inactive) | > 100 µM (inactive) | > 100 µM (inactive) | > 20.9 µM (inactive) |
| CCC1CCCCN1CC(C(C)=O)C(c1ccccc1)c1c(O)c2ccccc2oc1=O (stereo unspecified) | > 100 µM (inactive) | > 100 µM (inactive) | > 100 µM (inactive) | > 100 µM (inactive) | > 100 µM (inactive) |  |  | > 100 µM (inactive) | > 100 µM (inactive) |
| CCOC(=O)/C=C1\CCCC12OCCO2 | > 100 µM (inactive) | > 100 µM (inactive) | > 100 µM (inactive) | 89.3 µM (inactive) |  | > 100 µM (inactive) | > 100 µM (inactive) |  | 85.5 µM (inactive) |
| COc1cc(/C=C2/C(=O)N(C(=O)OCC(C)C)C(Cc3cc(OC)c(OC)c(C)c3OC)C(=O)N2Cc2ccccc2)c(OC)c(C)c1OC (stereo unspecified) | > 100 µM (inactive) |  | > 100 µM (inactive) | 84.3 µM (inactive) |  | > 100 µM (inactive) | 5.57 µM (inactive) | > 100 µM (inactive) | 23.1 µM (inactive) |
| S=C1ON=C(c2ccccc2)/C1=C/Nc1ccccc1 |  | > 100 µM (inactive) |  | 37.2 µM (inactive) | > 100 µM (inactive) | < 0.01 µM (active) | > 100 µM (inactive) |  | > 100 µM (inactive) |
| O=c1c(C(c2ccc([N+](=O)[O-])cc2)c2c(O)c3ccccc3n(-c3ccccc3)c2=O)c(O)c2ccccc2n1-c1ccccc1 | 27.2 µM (inactive) | 21.7 µM (inactive) | 32.5 µM (inactive) | 6.41 µM (inactive) | 19.7 µM (inactive) | 2.4 µM (inactive) | 8.05 µM (inactive) | 14.7 µM (inactive) | 20.3 µM (inactive) |
| CC1=CCCC2C1(C)CCC(C)C2(C)Cc1cc(O)ccc1O (stereo unspecified) | 10.8 µM (inactive) | 2.59 µM (inactive) | 5.57 µM (inactive) | 6.34 µM (inactive) | 7.23 µM (inactive) | 19.2 µM (inactive) |  |  | 4.2 µM (inactive) |
| CC1(C)CCc2cc3c(-c4ccccc4)cc(=O)oc3cc2O1 | > 100 µM (inactive) | 85.7 µM (inactive) | > 100 µM (inactive) | > 100 µM (inactive) | 41 µM (inactive) | 47.8 µM (inactive) | > 100 µM (inactive) | > 100 µM (inactive) | > 100 µM (inactive) |
| CNC(C)(C)Cc1ccc(Cl)cc1 | > 100 µM (inactive) |  | > 100 µM (inactive) | > 100 µM (inactive) | 34.7 µM (inactive) |  | > 100 µM (inactive) |  | > 100 µM (inactive) |
| NC(=O)C(=O)C1C(=O)N(c2ccccc2)N=C1N (stereo unspecified) | > 100 µM (inactive) | > 100 µM (inactive) |  | > 100 µM (inactive) | > 100 µM (inactive) |  | > 100 µM (inactive) |  |  |
| CC(C)C(C(=O)O)N(CC1(O)OCC(O)C(O)C1O)N=O (stereo unspecified) | > 100 µM (inactive) | > 100 µM (inactive) | > 100 µM (inactive) | > 100 µM (inactive) | > 100 µM (inactive) |  | > 100 µM (inactive) | > 100 µM (inactive) | > 100 µM (inactive) |
| CSc1nc2c(nc(N)n2C2OC(COC(C)=O)C(OC(C)=O)C(OC(C)=O)C2OC(C)=O)c(=O)n1C (stereo unspecified) | > 100 µM (inactive) | > 100 µM (inactive) |  | > 100 µM (inactive) | > 100 µM (inactive) | > 100 µM (inactive) | > 100 µM (inactive) | > 100 µM (inactive) | > 100 µM (inactive) |
| CC(=O)OCCOCNC(=S)N/N=C/c1cc(Br)cs1 | > 100 µM (inactive) | > 100 µM (inactive) | > 100 µM (inactive) | > 100 µM (inactive) | > 100 µM (inactive) | > 100 µM (inactive) | > 100 µM (inactive) | > 100 µM (inactive) | > 100 µM (inactive) |
| Cc1cc(N(CCC#N)S(=O)(=O)c2ccccc2)ccc1C=O | > 100 µM (inactive) | > 100 µM (inactive) |  | > 100 µM (inactive) |  | > 100 µM (inactive) | > 100 µM (inactive) | > 100 µM (inactive) | > 100 µM (inactive) |
| CC(C)(C)NCC(COc1ccc([N+](=O)[O-])cc1)OP(c1ccccc1)c1ccccc1 (stereo unspecified) | 36.4 µM (inactive) | 25.9 µM (inactive) | 40.6 µM (inactive) | 27.8 µM (inactive) | 22.5 µM (inactive) |  | 19.3 µM (inactive) |  | 23 µM (inactive) |
| CN(C)CC1(C)CC/C(=C\c2ccc3c(c2)OCO3)C1=O (stereo unspecified) | 3.72 µM (inactive) | > 100 µM (inactive) | > 100 µM (inactive) | > 100 µM (inactive) | > 100 µM (inactive) | > 100 µM (inactive) | > 100 µM (inactive) |  | 57.4 µM (inactive) |
| Clc1ccc2c(c1)-c1c3c(nn1-c1ccccc1)-c1ccccc1SC3O2 (stereo unspecified) | > 100 µM (inactive) | > 100 µM (inactive) | > 100 µM (inactive) |  | > 100 µM (inactive) | > 100 µM (inactive) | > 100 µM (inactive) |  | 56.1 µM (inactive) |
| NC1CCC2(O)c3ccccc3C2C1 (stereo unspecified) | > 100 µM (inactive) | > 100 µM (inactive) | > 100 µM (inactive) |  | > 100 µM (inactive) | > 100 µM (inactive) | > 100 µM (inactive) |  | > 100 µM (inactive) |
| O=c1c2ccccc2[nH]c2cc(O)cc(O)c12 |  | > 100 µM (inactive) | 39.1 µM (inactive) |  | 27.9 µM (inactive) | > 100 µM (inactive) | 39.3 µM (inactive) |  |  |
| NC(N)=NN/C(=C1/N=c2ccc([N+](=O)[O-])cc2=NC1=O)C(O)c1ccco1 (stereo unspecified) | > 100 µM (inactive) | > 100 µM (inactive) | > 100 µM (inactive) | > 100 µM (inactive) | > 100 µM (inactive) | > 100 µM (inactive) | 92.7 µM (inactive) |  | 27.5 µM (inactive) |
| CN(C)CCN1C(=O)c2cccc3cc(N)cc(c23)C1=O [AMONAFIDE] | 3.99 µM (inactive) |  | 4.19 µM (inactive) | 5.38 µM (inactive) | 0.946 µM (active) | 5.2 µM (inactive) |  |  | 4.21 µM (inactive) |
| C[C@H](N)C(=O)N[C@@H]1[C@H]2C(=C(O)C[C@@H](O)[C@@H]2O)C(=O)O[C@]1(C)C(Cl)Cl [BACTOBOLIN] | 0.262 µM (active) | 0.281 µM (active) | 0.232 µM (active) | 0.24 µM (active) | 0.0938 µM (active) | 0.57 µM (active) | 0.108 µM (active) | 0.289 µM (active) | 0.178 µM (active) |
